Usually AC50 stands for the concentration at which the activity in the assay is half-maximal.

Calls of active or inactive are those of the source.

The subject of one data set is Escherichia coli. As to the kind of experiment: microbe, parasite or virus in culture.
A short description of data set [1]: CRF-BP/CRF-R2 complex antagonists, dose response, cell-based, uHTS hits, 384-well (AID 651639). To be noted: read-out: IC50_Mean. The data set is classed as functional, Homo sapiens.
In data set [2] the target is T1, Corticotropin-releasing factor receptor 2/Corticotropin-releasing factor-binding protein (Homo sapiens, UniProt P24387+Q13324).
T1 sequence (Q13324 whole entry): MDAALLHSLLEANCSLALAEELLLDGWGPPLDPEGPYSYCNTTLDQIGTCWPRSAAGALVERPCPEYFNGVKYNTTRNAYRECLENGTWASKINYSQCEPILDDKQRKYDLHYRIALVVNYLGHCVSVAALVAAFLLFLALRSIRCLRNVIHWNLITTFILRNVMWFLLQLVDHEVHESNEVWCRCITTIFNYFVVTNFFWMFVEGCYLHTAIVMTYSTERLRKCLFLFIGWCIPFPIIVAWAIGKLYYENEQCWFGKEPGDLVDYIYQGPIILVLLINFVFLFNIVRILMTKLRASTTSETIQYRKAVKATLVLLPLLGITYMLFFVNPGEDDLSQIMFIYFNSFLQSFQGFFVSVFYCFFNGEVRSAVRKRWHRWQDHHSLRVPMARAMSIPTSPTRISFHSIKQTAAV
T1 sequence (P24387 whole entry): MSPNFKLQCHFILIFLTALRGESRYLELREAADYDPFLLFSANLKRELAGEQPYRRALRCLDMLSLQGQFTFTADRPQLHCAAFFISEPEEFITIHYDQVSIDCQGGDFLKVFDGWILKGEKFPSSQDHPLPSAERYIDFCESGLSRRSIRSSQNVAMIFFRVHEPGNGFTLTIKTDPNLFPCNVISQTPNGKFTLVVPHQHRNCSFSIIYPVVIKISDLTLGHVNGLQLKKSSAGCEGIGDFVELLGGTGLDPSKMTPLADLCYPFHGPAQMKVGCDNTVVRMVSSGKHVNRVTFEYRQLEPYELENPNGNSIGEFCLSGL
Description: activators of CRF receptor 2 with binding protein – uHTS hits, confirmation (AID 602473). As to conditions: read-out: EC50_Mean. Format: functional.

The target of data set [3] is T1, Corticotropin-releasing factor receptor 2/Corticotropin-releasing factor-binding protein. As to the kind of experiment: Dose Response confirmation of uHTS hits for small molecule antagonists of the CRF-binding protein and CRF-R2 receptor complex. The data set is classed as functional. As to conditions: read-out: IC50_Mean.
The target of the next data set is Prothrombin (Homo sapiens, UniProt P00734). As to the kind of experiment: Thrombin 1536 HTS Dose Response Confirmation. [Related pubchem assays: 1046 (Thrombin 1536 HTS; hits were confirmed in this assay)]. The data set is classed as functional.
The next data set has as its target Large T antigen (Simian virus 40, UniProt P03070). The data set is classed as functional, Betapolyomavirus macacae.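 Note: Confirmatory-stage PubChem screen for compounds that inhibit SV40 T antigen.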
Another data set is described as follows: cells. The data set is classed as functional.
The next data set deals with Genome polyprotein (dengue virus type 2, UniProt P29990). Description: Dengue-2 NS5 methyltransferase inhibitors, primary screen, biochemical, confirmation dose response (AID 588689). Format: functional.
Data set [4] deals with T2, Carboxy-terminal domain RNA polymerase II polypeptide A small phosphatase 1 (Homo sapiens, UniProt Q9GZU7).
T2 sequence (Q9GZU7 whole entry): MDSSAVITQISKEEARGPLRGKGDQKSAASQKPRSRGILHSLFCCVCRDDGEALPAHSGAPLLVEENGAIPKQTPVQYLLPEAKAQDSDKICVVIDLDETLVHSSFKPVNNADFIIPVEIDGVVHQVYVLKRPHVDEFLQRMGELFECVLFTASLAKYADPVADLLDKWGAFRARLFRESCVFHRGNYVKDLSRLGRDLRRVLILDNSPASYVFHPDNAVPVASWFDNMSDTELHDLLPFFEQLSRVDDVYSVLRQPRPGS
As to the kind of experiment: inhibitors of CTDSP1, concentration-response testing, biochemical assay, absorbance-based, actives from ultra-high-throughput screening (AID 540297). The data set is classed as functional.

Data set [5] can be described thus: growth suppression of beta-catenin-knockout colon cells, dose response, cell-based, HCT116, human colon tumor (AID 1045).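 Note: HCT116 colon tumor cells with beta catenin knocked out; cells exposed to compound for 60 hours.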 The data set is classed as functional.
A short description of data set [6]: growth suppression of PTEN-null colon cells, dose response, cell-based, HCT116 PTEN knockout (AID 1047).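 Note: HCT116 colon tumor cells with PTEN knocked out; cells exposed to compound for 60 hours before readout; potency for loss of cell viability measured by luminescence.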 The data set is classed as functional.
Data set [7] deals with T3, High affinity choline transporter 1 (Homo sapiens, UniProt Q9GZV3).
T3 sequence (Q9GZV3 whole entry): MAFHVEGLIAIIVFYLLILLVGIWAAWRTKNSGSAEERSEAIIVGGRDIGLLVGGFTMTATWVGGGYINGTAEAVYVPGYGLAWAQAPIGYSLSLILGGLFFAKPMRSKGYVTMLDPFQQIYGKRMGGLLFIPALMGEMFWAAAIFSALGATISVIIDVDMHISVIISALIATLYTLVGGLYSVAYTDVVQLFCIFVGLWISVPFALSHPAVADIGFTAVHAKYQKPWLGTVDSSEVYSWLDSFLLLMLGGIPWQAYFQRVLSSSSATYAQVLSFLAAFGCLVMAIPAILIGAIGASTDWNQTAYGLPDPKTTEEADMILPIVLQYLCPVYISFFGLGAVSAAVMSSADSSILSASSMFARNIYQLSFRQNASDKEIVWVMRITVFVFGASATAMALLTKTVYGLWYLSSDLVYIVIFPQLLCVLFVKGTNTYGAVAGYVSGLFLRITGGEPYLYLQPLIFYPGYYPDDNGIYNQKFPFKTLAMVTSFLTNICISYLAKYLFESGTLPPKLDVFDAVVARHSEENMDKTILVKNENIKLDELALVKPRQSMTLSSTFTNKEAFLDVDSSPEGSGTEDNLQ
As to the kind of experiment: CHT inhibitors, dose response, cell-based, 5-point CRC, membrane potential dye (AID 504840). The data set is classed as functional.

Data set [8] is described as follows: intracellular Trypanosoma cruzi inhibitors in host cells – cell-based, plate reader, cherry-pick samples, set 3, dose response (AID 651818).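 Note: compounds incubated with infected cells for about four days.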 The data set is classed as functional.
A further data set relates to Streptococcus. As to the kind of experiment: Group A Streptococcus viability loss, dose response, counter-screen for streptokinase expression inhibitor project, luminescence, BacTiterGlo (AID 1915).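 Note: potency for reduction of bacterial viability or growth.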 The data set is classed as functional, organism-based. For orientation: A counterscreen serves to expose hits that act by an unwanted route or on another target.
In data set [9] the test system is Streptococcus sp. 'group A'. As to the kind of experiment: growth inhibition of control SK(-) GAS strain, dose response, counter-screen for streptokinase expression inhibitor project, luminescence, kanamycin, BacTiterGlo, confirmation (AID 1900). Format: functional, organism-based.
The next data set concerns the target Cytochrome P450 2C9 (Homo sapiens, UniProt P11712).

Chain of Genome polyprotein (P29990 2492-3391 limits assumed): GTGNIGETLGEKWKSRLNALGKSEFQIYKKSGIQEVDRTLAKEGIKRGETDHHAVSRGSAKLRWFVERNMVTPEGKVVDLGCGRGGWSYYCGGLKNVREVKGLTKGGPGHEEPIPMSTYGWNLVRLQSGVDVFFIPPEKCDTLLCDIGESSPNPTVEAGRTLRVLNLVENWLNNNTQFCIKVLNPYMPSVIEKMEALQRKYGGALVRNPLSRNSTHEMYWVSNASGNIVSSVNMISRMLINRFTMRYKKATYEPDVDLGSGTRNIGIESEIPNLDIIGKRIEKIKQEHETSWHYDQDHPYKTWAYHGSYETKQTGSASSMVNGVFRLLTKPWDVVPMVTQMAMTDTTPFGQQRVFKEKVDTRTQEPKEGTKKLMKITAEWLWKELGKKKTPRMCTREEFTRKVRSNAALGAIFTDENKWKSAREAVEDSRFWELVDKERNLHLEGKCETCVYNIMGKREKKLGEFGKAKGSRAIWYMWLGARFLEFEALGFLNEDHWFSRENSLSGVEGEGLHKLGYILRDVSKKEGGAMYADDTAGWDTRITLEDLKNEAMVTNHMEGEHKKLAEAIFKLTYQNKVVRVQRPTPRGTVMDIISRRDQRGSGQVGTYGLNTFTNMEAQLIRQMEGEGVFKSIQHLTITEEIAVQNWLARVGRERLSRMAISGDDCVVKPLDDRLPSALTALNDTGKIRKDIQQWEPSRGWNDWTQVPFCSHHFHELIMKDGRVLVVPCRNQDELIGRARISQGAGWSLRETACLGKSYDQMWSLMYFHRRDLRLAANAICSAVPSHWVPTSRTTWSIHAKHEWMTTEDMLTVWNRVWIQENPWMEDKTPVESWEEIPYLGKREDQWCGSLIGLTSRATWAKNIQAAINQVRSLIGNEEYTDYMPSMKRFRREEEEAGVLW
Chain of Large T antigen (P03070 whole entry): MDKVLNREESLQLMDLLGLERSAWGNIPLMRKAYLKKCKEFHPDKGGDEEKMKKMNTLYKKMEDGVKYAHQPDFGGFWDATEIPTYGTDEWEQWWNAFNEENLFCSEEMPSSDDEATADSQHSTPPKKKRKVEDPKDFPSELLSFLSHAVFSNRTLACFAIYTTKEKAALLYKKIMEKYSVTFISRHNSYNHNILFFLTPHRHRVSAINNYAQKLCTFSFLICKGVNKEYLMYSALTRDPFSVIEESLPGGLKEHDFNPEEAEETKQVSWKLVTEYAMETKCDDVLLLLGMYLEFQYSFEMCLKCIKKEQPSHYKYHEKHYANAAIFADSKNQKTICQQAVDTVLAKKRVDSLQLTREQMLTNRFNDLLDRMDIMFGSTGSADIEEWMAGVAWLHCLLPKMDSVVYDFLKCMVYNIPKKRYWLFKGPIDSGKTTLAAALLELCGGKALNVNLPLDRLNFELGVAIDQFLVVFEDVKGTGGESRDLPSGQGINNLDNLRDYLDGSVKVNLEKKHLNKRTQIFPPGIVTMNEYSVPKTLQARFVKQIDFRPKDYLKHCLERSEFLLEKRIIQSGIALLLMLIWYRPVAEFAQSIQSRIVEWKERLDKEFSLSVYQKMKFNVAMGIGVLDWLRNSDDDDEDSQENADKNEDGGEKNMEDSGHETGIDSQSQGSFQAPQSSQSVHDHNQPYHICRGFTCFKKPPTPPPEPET
Chain of Cytochrome P450 2C9 (P11712 whole entry): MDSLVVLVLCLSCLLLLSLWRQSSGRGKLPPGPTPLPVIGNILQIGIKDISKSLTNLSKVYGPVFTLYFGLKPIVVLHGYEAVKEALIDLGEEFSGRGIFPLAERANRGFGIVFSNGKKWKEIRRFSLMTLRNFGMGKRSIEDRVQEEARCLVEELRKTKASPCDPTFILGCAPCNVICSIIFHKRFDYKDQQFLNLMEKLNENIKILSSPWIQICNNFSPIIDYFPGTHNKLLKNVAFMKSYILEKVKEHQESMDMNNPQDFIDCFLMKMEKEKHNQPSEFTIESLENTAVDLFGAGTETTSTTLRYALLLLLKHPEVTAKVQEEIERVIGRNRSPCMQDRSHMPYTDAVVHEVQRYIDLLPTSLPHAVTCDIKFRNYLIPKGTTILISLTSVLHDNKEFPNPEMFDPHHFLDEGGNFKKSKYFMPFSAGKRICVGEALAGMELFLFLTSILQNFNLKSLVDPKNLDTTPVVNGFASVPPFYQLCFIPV

Consider `Cc1ccccc1-c1nc(CN2CCC(C(=O)O)CC2)c(C)o1`, for which the AC50 with Escherichia coli was 20.8 µM (active). As for `Cc1cc([N+](=O)[O-])ccc1NC1CCCC1`, the IC50 was 12.8 µM (active) in [1] and 7.24 µM (active) in [3]. The EC50 in data set [2] was > 53 µM (inactive).

For the molecule `CCc1cccc(CC)c1NC(=O)c1cccc(N)c1`, the IC50 on Prothrombin is recorded as > 50 µM (not active). With `CCOC(=O)Cc1csc(NC(=S)NC(=O)c2ccc([N+](=O)[O-])cc2)n1`, the IC50 in data set [1] is > 20 µM (inactive); in [3], 16.7 µM (active). In addition, the EC50 in [2] was 18 µM (active). As to `CC(C)c1ccc(NC(=O)COc2ccccn2)cc1`, the IC50 on Prothrombin is on record as > 50 µM (not active). As to `COc1cc(/C=C2/C(=O)NN(c3cccc(C)c3)C2=O)ccc1OC(=O)c1ccco1`, the IC50 was 32.1 µM (active) on Large T antigen, 19.9 µM (active) in “cells” and 64 µM (active) at Genome polyprotein. For `O=C(CSc1nnc(-c2ccncc2)n1-c1ccc(F)cc1)NC(=O)NCc1ccco1`, the IC50 in data set [4] is 8.38 µM (active).

On to `CCCC(NC(=O)Cc1c(C)c2cc3c(C)c(C)oc3c(C)c2oc1=O)C(=O)N[C@@H](Cc1ccccc1)C(=O)O` (stereo partly specified), for which, in data set [4], the IC50 was 3.57 µM (active).

On to `Cc1cc(Oc2nc3c(C)cccn3c(=O)c2/C=C(\C#N)S(=O)(=O)c2ccc(Cl)cc2)ccc1Cl`, for which the EC50 was 6.7 µM (active) in data set [5] and 7.18 µM (active) in data set [6]. Further, in the data set with Escherichia coli, the AC50 was 28.9 µM (active). As to `Cc1ncoc1C(=O)Nc1ccc(Oc2ccccc2)cc1`, the IC50 in data set [7] is 13.2 µM (active). Regarding `O=C(Nc1cccc([N+](=O)[O-])c1)Nc1cccc([N+](=O)[O-])c1`, in data set [4], the IC50 is 8.46 µM (active).

On to `CCCN(CCC)c1nc(O)nc(N(CCC)CCC)n1`, for which the IC50 in data set [7] was 3.63 µM (active). For `O=C(O)c1ccc(Cl)c(S(=O)(=O)Nc2ccccc2C(=O)Nc2ccc(Cl)cc2)c1`, the IC50 at Genome polyprotein is 34 µM (active). Same read-out and setting: the figure for `CCCC(C(=O)O)N1C(=O)/C(=C2\C(=O)N(C)c3ccccc32)SC1=S` (stereo unspecified) is 30.4 µM (active). Consider `COc1cc2c(cc1NC(=O)COC(=O)[C@@H](NC(=O)c1ccccc1)C(C)C)oc1ccccc12`, for which the AC50 with Escherichia coli was 33.8 µM (active). Consider `Nc1nnc(SCc2cc3c(cc2Cl)OCO3)s1`, for which the IC50 in [1] is > 20 µM (inactive); in data set [3], 22.5 µM (active). In addition, in [2], the EC50 was > 53 µM (inactive). For `Cc1cccc(NC(=S)NC23CN4CN(CN(C4)C2)C3)c1`, the IC50 against Prothrombin is given as > 50 µM (not active). On to `COC(=O)c1ccc(N2NC(=O)/C(=C/c3cc(OC)c(OC)c(OC)c3)C2=O)cc1`, for which the IC50 at Genome polyprotein is 46.6 µM (active). Consider `COc1ccccc1CCNC(=O)CCn1nc(C)c2c(C)n(-c3ccccc3)nc2c1=O`, for which the IC50 was > 20 µM (inactive) in data set [1] and 41.1 µM (active) in data set [3]. The EC50 in [2] is > 53 µM (inactive). Take `C[C@@H]1CN([C@@H](C)CO)C(=O)Cc2cc(NC(=O)Nc3cccc4ccccc34)ccc2O[C@@H]1CN(C)Cc1ccc(C(F)(F)F)cc1`: the AC50 in data set [8] is 3.08 µM (active).

For `O=C(CCS(=O)(=O)c1ccc(Br)cc1)NC1CCCCCC1`, in [4], the IC50 was 7.42 µM (active). On to `CSc1nc(C)c(C(=O)C[n+]2ccccc2C)cc1C#N`, for which the IC50 in [1] is > 20 µM (inactive); in data set [3], < 0.368 µM (active). Also, the EC50 in data set [2] is > 53 µM (inactive). As for `Cc1ccc(OCCSC2=NN2c2cc(C)nc(N)n2)cc1`, the IC50 in data set [7] is 14.8 µM (active). Consider `C[C@@H]1CCCCO[C@@H](CN(C)Cc2ccc(Cl)c(Cl)c2)[C@@H](C)CN([C@H](C)CO)C(=O)c2cc(NS(=O)(=O)c3ccc(F)cc3)ccc2O1`, for which the AC50 in [8] was 4.38 µM (active). On to `C[C@@H]1CN([C@@H](C)CO)C(=O)Cc2cc(NC(=O)Nc3ccc(C(F)(F)F)cc3)ccc2O[C@@H]1CN(C)Cc1ccc(C(F)(F)F)cc1`, for which the AC50 in data set [8] was 3.26 µM (active). Regarding `COc1ccc(NC(=O)Nc2ccc3c(c2)CC(=O)N([C@@H](C)CO)C[C@@H](C)[C@@H](CN(C)Cc2ccc(C(=O)Nc4ccccc4N)cc2)O3)cc1`, the AC50 in [8] was 2.51 µM (active).

As to `C[C@@H]1CN([C@H](C)CO)C(=O)c2cccc(NC(=O)Nc3ccc4c(c3)OCO4)c2O[C@H]1CN(C)Cc1ccc(C(=O)Nc2ccccc2N)cc1`, the AC50 in [8] is 0.743 µM (active). Consider `CC[C@H]1OC(=O)[C@H](C)[C@@H](O[C@H]2C[C@@](C)(OC)[C@@H](O)[C@H](C)O2)[C@H](C)[C@@H](O[C@@H]2O[C@H](C)C[C@H](N(C)C)[C@H]2O)[C@](C)(OC)C[C@@H](C)C(=O)[C@H](C)[C@@H](O)[C@]1(C)O` [CLARITHROMYCIN], for which the EC50 (in the data set with Streptococcus; in data set [9]) was < 0.06 µM (active) in each case. Also, the concentration at half-maximal activity (AC50) in the data set with Escherichia coli is 23.1 µM (active). Regarding `CCn1cc(C(=O)O)c(=O)c2cc(F)c(N3CCNCC3)nc21` [ENOXACIN], the AC50 in the data set on Escherichia coli is 1.07 µM (active); at Cytochrome P450 2C9, “inconclusive”.

The values are drawn from ChEMBL document CHEMBL1201862, “PubChem BioAssay data set” (2004).
